Test results: patent publication US9113629B2, “4-amino-6-(4-substituted-phenyl)-picolinates and 6-amino-2-(4-substituted-phenyl)-pyrimidine-4-carboxylates and their use as herbicides” (DOW AGROSCIENCES LLC, priority 2013, dated 2015)
Like-named read-outs stand apart in the source and are kept apart here.

Tests used:
[1] = tested on: Key Grass and Sedge Weeds as well as Grass Crops; test: Post-emergent Test II herbicidal activity (Table 6); type: in vivo; conditions: post-emergence, 336 h; for pest or weed control at 70 g/ha: application rate 70 g ai/ha; for pest or weed control at 140 g/ha: application rate 140 g ai/ha
In short: (§1)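 Plants grown in Metro-Mix 360 (pH 6.0–6.8) in a greenhouse (~15 h photoperiod, 23–29 °C day) to first or second true leaf stage, then sprayed with compound in acetone/DMSO/aqueous crop-oil-surfactant carrier at 187 L/ha by track sprayer. Injury visually scored 0–100% versus untreated plants after 14 d.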

[2] = tested on: Key Broadleaf Weed and Crop Species; test: Post-emergent Test II herbicidal activity (Table 5); type: in vivo; conditions: post-emergence, 336 h, post-emergent, 14 days after application; for pest or weed control at 70 g/ha: 70 g ai/ha; for pest or weed control at 140 g/ha: 140 g ai/ha
In short: as §1

[3] = Triticum aestivum, TRZSS (wheat), read-out: Visual Growth Reduction (%) 14 Days After Application, TRZSS
[4] = CYPES: yellow nutsedge (Cyperus esculentus), read-out: Visual Growth Reduction (%) 14 Days After Application, CYPES
[5] = DIGSA: crabgrass (Digitaria sanguinalis), read-out: Visual Growth Reduction (%) 14 Days After Application, DIGSA
[6] = ECHCG: barnyardgrass (Echinochloa crus-galli), read-out: Visual Growth Reduction (%) 14 Days After Application, ECHCG
[7] = ORYSA: rice (Oryza sativa), read-out: Visual Growth Reduction (%) 14 Days After Application, ORYSA
[8] = SETFA: giant foxtail (Setaria faberi), read-out: Visual Growth Reduction (%) 14 Days After Application, SETFA
[9] = SORVU: grain sorghum (Sorghum vulgare), read-out: Visual Growth Reduction (%) 14 Days After Application, SORVU
[10] = ZEAMX: maize, corn (Zea mays), read-out: Visual Growth Reduction (%) 14 Days After Application, ZEAMX
[11] = ABUTH: velvetleaf (Abutilon theophrasti), read-out: Visual Growth Reduction (%) 14 Days After Application ABUTH
[12] = AMARE: redroot pigweed (Amaranthus retroflexus), read-out: Visual Growth Reduction (%) 14 Days After Application AMARE
[13] = BRSNN: oilseed-rape, canola (Brassica napus), read-out: Visual Growth Reduction (%) 14 Days After Application BRSNN
[14] = CHEAL: lambsquarters (Chenopodium album), read-out: Visual Growth Reduction (%) 14 Days After Application CHEAL
[15] = EPHHL: wild poinsettia (Euphorbia heterophylla), read-out: Visual Growth Reduction (%) 14 Days After Application EPHHL
[16] = HELAN: sunflower (Helianthus annuus), read-out: Visual Growth Reduction (%) 14 Days After Application HELAN
[17] = VIOTR: wild pansy (Viola tricolor), read-out: Visual Growth Reduction (%) 14 Days After Application VIOTR

In the case of C=Cc1c(C(=O)O)nc(-c2ccc(C#N)cc2)c(F)c1N [Compound 150], the pest or weed control at 70 g/ha [1, 3] is reported as 30 to 44%, the pest or weed control at 140 g/ha [1, 3] is reported as 45 to 59% and the pest or weed control at 70 g/ha [1, 4] is reported as 0 to 29%. For the same compound, the pest or weed control at 140 g/ha [1, 4] was 45 to 59%, the pest or weed control at 70 g/ha [1, 5] was 0 to 29% and the pest or weed control at 140 g/ha [1, 5] was 0 to 29%. It also gave a pest or weed control at 70 g/ha [1, 6] of 0 to 29%, a pest or weed control at 140 g/ha [1, 6] of 0 to 29% and a pest or weed control at 70 g/ha [1, 7] of 0 to 29%. It also gave a pest or weed control at 140 g/ha [1, 7] of 0 to 29%, a pest or weed control at 70 g/ha [1, 8] of 0 to 29% and a pest or weed control at 140 g/ha [1, 8] of 60 to 74%. For the same compound, the pest or weed control at 70 g/ha [1, 9] was 45 to 59%, the pest or weed control at 140 g/ha [1, 9] was 45 to 59% and the pest or weed control at 70 g/ha [1, 10] was 45 to 59%. The pest or weed control at 140 g/ha [1, 10] was 60 to 74%, the pest or weed control at 70 g/ha [2, 11] was 45 to 59% and the pest or weed control at 140 g/ha [2, 11] was 60 to 74%. It also gave a pest or weed control at 70 g/ha [2, 12] of 95 to 100%, a pest or weed control at 140 g/ha [2, 12] of 95 to 100% and a pest or weed control at 70 g/ha [2, 13] of 45 to 59%. It also gave a pest or weed control at 140 g/ha [2, 13] of 60 to 74%, a pest or weed control at 70 g/ha [2, 14] of 85 to 94% and a pest or weed control at 140 g/ha [2, 14] of 85 to 94%. For the same compound, the pest or weed control at 70 g/ha [2, 15] was 95 to 100%, the pest or weed control at 140 g/ha [2, 15] was 95 to 100% and the pest or weed control at 70 g/ha [2, 16] was 95 to 100%. It also gave a pest or weed control at 140 g/ha [2, 16] of 95 to 100%, a pest or weed control at 70 g/ha [2, 17] of 0 to 29% and a pest or weed control at 140 g/ha [2, 17] of 0 to 29%.
